Laboratory results from ChEMBL document CHEMBL1201862, “PubChem BioAssay data set” (2004).
Active and inactive are the calls of the source.

What was measured:
Fatty acid synthase [1] = target: T1, Fatty acid synthase (Homo sapiens, UniProt P49327); experiment: FAS thioesterase domain inhibitors, dose response, biochemical, endpoint fluorescence intensity, uHTS hits (AID 624327); format: functional;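 further: fluorescence from hydrolysis of an O-methyl fluorescein acyl ester substrate by the enzyme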
T1 sequence (P49327 whole entry, the tested form may be a part): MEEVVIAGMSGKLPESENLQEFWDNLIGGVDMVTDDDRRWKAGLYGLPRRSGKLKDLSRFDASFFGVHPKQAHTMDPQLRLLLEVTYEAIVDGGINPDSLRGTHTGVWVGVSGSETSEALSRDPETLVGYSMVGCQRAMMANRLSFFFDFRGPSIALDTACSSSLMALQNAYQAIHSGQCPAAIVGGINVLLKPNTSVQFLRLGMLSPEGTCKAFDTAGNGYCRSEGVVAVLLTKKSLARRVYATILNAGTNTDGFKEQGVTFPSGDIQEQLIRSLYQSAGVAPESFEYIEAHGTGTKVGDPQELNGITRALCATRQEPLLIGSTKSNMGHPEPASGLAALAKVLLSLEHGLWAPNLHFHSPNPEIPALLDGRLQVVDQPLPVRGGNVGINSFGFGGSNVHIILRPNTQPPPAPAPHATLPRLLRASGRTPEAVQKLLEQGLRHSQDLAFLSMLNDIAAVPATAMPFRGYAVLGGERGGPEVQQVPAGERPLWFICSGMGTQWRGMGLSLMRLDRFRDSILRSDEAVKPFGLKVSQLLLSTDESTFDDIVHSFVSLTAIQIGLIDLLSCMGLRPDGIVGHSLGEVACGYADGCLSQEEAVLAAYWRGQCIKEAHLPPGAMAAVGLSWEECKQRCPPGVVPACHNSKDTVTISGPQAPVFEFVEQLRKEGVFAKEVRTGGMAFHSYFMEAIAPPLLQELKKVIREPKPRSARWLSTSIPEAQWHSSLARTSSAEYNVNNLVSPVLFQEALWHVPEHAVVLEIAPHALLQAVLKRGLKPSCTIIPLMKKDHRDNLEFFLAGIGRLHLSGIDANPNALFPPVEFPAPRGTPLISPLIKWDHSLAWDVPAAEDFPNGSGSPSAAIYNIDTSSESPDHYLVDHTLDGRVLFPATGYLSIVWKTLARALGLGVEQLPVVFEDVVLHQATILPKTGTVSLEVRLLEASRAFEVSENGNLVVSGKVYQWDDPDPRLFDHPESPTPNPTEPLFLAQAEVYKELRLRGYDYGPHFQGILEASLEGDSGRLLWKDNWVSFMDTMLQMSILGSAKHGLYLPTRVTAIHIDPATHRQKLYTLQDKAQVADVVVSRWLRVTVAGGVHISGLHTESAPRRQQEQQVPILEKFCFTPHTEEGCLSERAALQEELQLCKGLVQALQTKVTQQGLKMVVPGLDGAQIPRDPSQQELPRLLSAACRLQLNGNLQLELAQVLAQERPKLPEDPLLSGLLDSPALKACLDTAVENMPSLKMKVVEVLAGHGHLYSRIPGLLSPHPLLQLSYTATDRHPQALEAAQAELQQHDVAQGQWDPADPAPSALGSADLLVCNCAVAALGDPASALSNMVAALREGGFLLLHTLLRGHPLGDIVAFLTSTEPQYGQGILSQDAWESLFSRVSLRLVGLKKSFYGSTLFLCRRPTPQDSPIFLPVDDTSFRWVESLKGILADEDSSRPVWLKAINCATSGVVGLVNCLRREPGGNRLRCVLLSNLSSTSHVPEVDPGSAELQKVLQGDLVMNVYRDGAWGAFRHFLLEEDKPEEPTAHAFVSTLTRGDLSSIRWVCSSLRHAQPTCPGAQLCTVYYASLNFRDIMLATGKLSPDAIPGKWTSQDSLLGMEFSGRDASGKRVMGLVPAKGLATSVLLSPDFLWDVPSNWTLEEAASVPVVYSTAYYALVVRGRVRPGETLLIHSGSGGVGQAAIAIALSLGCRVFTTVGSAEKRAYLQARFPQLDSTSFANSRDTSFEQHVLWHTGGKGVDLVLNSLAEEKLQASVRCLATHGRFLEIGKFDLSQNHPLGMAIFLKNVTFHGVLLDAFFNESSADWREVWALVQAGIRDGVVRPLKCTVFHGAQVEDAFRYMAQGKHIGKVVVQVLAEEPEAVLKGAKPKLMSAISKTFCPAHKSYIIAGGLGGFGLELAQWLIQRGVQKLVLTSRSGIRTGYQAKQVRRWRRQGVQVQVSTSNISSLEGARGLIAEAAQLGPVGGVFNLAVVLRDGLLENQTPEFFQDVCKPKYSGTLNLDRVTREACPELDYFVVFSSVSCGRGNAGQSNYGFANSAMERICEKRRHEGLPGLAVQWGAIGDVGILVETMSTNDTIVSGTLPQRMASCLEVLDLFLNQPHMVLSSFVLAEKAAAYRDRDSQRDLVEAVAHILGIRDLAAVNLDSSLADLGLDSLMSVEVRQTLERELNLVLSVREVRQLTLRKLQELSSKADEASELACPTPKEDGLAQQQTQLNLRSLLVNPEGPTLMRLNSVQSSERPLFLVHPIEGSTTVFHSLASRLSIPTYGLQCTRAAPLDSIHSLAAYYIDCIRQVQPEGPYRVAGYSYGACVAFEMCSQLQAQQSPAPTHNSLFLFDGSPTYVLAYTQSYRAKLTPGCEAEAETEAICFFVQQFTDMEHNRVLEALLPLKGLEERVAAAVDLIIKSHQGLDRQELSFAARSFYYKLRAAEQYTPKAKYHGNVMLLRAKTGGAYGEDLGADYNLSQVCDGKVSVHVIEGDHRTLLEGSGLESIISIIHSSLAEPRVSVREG

Fatty acid synthase [2] = target: T1, Fatty acid synthase; experiment: FAS thioesterase domain inhibitors, dose response, biochemical, kinetic fluorescence intensity (AID 624326); format: functional;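 further: rate of fluorescence rise from hydrolysis of a fluorogenic O-methyl fluorescein ester substrate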
[3] = target: Luciferin 4-monooxygenase (Photinus pyralis, UniProt P08659); experiment: firefly luciferase enzyme inhibitors, dose response, biochemical, luminescence (AID 1891)
Luciferin 4-monooxygenase, sequence (P08659 whole entry): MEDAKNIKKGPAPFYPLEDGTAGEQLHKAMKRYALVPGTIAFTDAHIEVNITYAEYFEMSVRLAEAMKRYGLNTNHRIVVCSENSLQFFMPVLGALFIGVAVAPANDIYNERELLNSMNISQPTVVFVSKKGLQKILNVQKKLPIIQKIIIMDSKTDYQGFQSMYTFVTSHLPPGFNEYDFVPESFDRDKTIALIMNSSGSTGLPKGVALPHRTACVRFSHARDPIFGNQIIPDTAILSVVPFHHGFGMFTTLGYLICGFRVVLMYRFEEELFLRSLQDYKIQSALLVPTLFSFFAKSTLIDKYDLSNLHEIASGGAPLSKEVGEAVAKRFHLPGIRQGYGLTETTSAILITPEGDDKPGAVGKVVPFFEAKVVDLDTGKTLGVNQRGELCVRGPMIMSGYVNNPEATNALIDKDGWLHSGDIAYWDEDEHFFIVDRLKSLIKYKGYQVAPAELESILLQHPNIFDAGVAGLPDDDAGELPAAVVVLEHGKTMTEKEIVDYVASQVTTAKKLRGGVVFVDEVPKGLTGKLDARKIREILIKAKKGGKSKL

[4] = Luminescence Cell-Based Dose Confirmation HTS to Identify Inhibitors of Platelet Dense Granule Release. [Related pubchem assays: 1663 (Primary HTS), 1678 (Summary of Project)]; format: functional
[5] = inhibitors of HIV Env-driven cell fusion, dose response, cherry-pick (AID 652057); format: functional, cell-based
[6] = ZM109 Env clade C HIV-1 fusion inhibitors, dose response, HeLa effector, CEM target cells, luciferase, cherry-pick (AID 652058); format: functional, cell-based
[7] = off-target signal loss in HeLa-CEM21 co-culture – HeLa F-luc CTL cells, cherry-picked, counter-screen for HIV-1 Env fusion inhibitor project, dose response (AID 652040); format: functional, cell-based;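 further: potency for signal decrease marking cytotoxic or nonspecific inhibition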
[8] = inhibitors of clade B AD8 Env fusion, dose response, cell-based, cherry-pick (AID 652062); format: functional;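 further: luciferase signal from cell-cell fusion driven by HIV-1 clade B AD8 Env; potency is for inhibitors of fusion seen as a drop in luminescence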
[9] = target: T2, RNA-binding protein pos-1 (Caenorhabditis elegans, UniProt G5EF15); experiment: inhibitors of POS-1/mex-3 RNA binding, dose response, biochemical, fluorescence polarization (AID 1964);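 further: purified POS-1 fused to maltose binding protein made in E. coli; potency of compounds blocking POS-1 binding to fluorescent RNA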
T2 sequence (G5EF15 whole entry): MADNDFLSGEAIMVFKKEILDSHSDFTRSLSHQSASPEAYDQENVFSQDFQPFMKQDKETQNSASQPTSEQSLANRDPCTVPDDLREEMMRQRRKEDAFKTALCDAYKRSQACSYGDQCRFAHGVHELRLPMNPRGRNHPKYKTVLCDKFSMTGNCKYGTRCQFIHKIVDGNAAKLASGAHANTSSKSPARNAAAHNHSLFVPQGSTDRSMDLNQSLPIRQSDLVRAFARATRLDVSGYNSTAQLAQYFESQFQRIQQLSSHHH

[10] = target: T3, Zinc finger protein mex-5 (Caenorhabditis elegans, UniProt Q9XUB2); experiment: MEX-5/TCR-2 RNA interaction inhibitors, dose response, biochemical, C. elegans, fluorescence polarization (AID 1960)
T3 sequence (Q9XUB2 whole entry): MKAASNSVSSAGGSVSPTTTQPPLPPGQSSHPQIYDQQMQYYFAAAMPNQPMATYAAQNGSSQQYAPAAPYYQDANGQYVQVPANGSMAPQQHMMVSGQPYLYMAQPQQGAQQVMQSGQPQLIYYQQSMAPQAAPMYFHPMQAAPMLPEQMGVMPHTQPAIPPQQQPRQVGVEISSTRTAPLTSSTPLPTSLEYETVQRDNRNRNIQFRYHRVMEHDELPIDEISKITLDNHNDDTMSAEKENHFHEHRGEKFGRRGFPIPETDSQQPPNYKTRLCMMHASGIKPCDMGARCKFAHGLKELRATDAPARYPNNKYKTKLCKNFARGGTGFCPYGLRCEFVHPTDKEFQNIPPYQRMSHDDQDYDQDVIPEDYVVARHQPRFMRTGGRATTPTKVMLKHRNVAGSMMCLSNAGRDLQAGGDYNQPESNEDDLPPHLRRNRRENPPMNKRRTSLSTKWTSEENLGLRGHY

[11] = microbe, parasite or virus in culture; format: functional; details: Mycobacterium tuberculosis
[12] = P. falciparum Dd2 growth inhibitors, dose response, SYBR Green, cherry-picked samples (AID 1159567); format: functional, cell-based
[13] = target: T4, Short transient receptor potential channel 4 (Mus musculus, UniProt Q9QUQ5); experiment: mouse TRPC4 channel inhibitors, dose response, cell-based, HEK293 TRPC4/mu-opioid, Fluo-4 calcium (AID 434942); format: functional;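 further: potency of inhibitors blocking the TRPC4 calcium response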
T4 sequence (Q9QUQ5 whole entry): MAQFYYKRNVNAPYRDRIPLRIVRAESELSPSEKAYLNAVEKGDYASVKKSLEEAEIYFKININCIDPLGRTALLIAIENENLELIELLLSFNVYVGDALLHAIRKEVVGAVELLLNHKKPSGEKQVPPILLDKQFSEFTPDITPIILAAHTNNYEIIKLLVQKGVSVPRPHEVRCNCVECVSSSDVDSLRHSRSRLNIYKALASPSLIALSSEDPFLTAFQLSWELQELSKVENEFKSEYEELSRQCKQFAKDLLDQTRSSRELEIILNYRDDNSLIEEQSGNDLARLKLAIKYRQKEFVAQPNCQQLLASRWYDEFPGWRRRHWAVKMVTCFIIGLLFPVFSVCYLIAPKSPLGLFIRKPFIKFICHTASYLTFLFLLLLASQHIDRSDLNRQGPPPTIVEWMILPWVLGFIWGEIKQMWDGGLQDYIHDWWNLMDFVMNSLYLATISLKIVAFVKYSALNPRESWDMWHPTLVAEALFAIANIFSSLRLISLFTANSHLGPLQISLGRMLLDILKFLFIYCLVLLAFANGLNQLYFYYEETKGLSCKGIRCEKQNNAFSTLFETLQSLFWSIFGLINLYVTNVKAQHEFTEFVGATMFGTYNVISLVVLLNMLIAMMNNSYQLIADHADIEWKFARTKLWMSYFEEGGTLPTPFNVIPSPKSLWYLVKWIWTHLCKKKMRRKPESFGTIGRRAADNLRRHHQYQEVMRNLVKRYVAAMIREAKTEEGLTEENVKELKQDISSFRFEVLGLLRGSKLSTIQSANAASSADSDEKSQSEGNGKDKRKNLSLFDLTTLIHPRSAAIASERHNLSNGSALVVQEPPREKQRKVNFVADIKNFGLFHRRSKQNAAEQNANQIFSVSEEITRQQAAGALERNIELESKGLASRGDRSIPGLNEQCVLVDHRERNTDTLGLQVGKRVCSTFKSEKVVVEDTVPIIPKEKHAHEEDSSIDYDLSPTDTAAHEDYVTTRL

[14] = inhibitors of firefly luciferase expression or activity, dose response, H4 neuroglioma cells, luminescence (AID 1990); format: functional, cell-based
[15] = Luminescence Cell-Based Dose Response HTS to Identify Inhibitors of 5'UTR Stem-Loop Driven Prion Protein mRNA Translation in H4 Neuroglioblastoma Cells. [Related pubchem assays: 1827 (Project Summary), 1813 (Primary HTS)]; format: functional
[16] = inhibitors of SNCA 5'UTR-driven reporter translation, confirmation, H4 neuroglioma cells, luminescence (AID 1988); format: functional, cell-based
BJ [17] = experiment: cytotoxicity toward BJ-TERT fibroblasts, dose response, cell-based, RAS-independent, luminescence (AID 1933); format: functional; details: Homo sapiens
cells [18] = format: functional, cell-based
BJ [19] = experiment: cells; format: functional, cell-based; details: Homo sapiens
cells [20] = format: functional, cell-based; remark: listed apart in the source
BJ [21] = experiment: cytotoxicity toward BJ-TERT-LT-ST fibroblasts, dose response, cell-based, RAS-independent, luminescence (AID 1935); format: functional; details: Homo sapiens;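 further: BJ fibroblasts immortalized with TERT plus LT and ST oncogenes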
[22] = cytotoxicity toward DRD oncogenic fibroblasts, dose response, cell-based, non-viral oncogenic, luminescence (AID 1934); format: functional; details: Homo sapiens
[23] = target: Heat shock protein HSP 90-alpha (Homo sapiens, UniProt P07900); format: functional, organism-based
INS1 = experiment: beta cell apoptosis inhibitors, cytokine rescue, dose response, luminescence, retest (AID 449756); format: functional, cell-based; details: Rattus norvegicus;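 further: cell death triggered by IL-1 beta plus TNF-alpha plus IFN-gamma mixture; protective hits raise ATP signal compared with cytokine alone wells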
[24] = target: T5, Polyadenylate-binding protein 1 (Homo sapiens, UniProt P11940); experiment: PABP1 MLLE–PAM2 interaction inhibitors, dose response, miRNA deadenylation inhibitor project, biochemical, fluorescence polarization, Cy5-PAM2 peptide, secondary (AID 602260); format: functional; details: read-out: IC50_Mean
T5 sequence (P11940 whole entry): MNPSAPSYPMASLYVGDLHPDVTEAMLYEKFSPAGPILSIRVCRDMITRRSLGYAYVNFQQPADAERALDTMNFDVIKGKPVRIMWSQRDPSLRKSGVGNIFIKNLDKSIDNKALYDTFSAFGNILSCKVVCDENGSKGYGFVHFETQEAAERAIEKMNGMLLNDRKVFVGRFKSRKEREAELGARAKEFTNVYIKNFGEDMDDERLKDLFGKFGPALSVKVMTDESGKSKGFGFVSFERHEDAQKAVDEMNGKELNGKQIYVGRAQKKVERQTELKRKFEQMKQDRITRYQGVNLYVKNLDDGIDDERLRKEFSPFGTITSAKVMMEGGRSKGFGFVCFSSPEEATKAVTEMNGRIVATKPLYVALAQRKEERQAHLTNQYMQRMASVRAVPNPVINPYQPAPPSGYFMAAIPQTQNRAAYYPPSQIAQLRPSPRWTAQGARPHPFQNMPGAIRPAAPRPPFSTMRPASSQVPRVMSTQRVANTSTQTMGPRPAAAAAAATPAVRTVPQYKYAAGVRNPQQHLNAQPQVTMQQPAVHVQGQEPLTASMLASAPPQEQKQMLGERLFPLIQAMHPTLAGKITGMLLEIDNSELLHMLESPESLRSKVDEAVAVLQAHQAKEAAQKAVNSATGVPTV

[25] = target: T5, Polyadenylate-binding protein 1; experiment: PABP1 MLLE–PAM2 binding inhibitor potency, dose response, biochemical, fluorescence polarization, FITC-PAM2 peptide (AID 602259); format: functional; details: read-out: IC50_Mean
Paired box protein Pax-8 = Paired box protein Pax-8 (Homo sapiens, UniProt Q06710); experiment: inhibitors of PAX8-driven TPO luciferase reporter, dose response, RMG-I cells, cherry-pick (AID 687027); format: functional, cell-based;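 further: luciferase reporter driven by Pax8 target thyroperoxidase promoter measured by SteadyGlo luminescence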
Paired box protein Pax-8, sequence (Q06710 whole entry): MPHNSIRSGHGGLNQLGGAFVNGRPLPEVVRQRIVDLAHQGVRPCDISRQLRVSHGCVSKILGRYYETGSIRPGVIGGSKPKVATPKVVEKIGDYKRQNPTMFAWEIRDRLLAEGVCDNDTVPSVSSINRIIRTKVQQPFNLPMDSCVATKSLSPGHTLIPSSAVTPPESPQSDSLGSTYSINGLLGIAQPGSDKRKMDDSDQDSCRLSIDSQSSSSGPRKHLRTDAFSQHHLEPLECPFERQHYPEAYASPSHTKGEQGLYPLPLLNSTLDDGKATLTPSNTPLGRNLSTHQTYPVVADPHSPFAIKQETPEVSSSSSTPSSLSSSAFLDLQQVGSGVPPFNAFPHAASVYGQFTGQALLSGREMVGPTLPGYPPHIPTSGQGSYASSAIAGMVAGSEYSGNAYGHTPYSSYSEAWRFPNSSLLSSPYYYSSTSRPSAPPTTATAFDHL

[26] = target: Induced myeloid leukemia cell differentiation protein Mcl-1 (Homo sapiens, UniProt Q07820); format: functional
Induced myeloid leukemia cell differentiation protein Mcl-1, sequence (Q07820 whole entry): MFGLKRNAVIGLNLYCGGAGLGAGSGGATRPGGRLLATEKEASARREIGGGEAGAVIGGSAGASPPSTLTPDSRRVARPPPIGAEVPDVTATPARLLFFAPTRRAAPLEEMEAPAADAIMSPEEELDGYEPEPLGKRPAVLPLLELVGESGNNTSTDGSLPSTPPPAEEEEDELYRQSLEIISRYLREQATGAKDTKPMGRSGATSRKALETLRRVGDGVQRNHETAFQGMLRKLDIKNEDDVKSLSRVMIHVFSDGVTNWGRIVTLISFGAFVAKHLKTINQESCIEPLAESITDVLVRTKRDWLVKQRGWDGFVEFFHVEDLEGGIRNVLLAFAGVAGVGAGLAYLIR

[27] = inhibitors of intracellular T. cruzi replication, confirmation, NIH3T3 host cells, beta-gal luminescence (AID 2044); format: functional, cell-based;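 further: intracellular parasites grown in NIH/3T3 mouse fibroblasts as host cells; luminescent beta-galactosidase reporter signal from transgenic T. cruzi replicating inside host cells; inhibitors lower the luminescence signal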
[28] = growth suppression of PTEN-null colon cells, dose response, cell-based, HCT116 PTEN knockout (AID 1047); format: functional;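 further: HCT116 colon tumor cells with PTEN knocked out; cells exposed to compound for 60 hours before readout; potency for loss of cell viability measured by luminescence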
[29] = cytotoxicity toward NIH3T3 fibroblasts, dose response, counter-screen, cell-based, ATP luminescence, mouse fibroblasts (AID 2010); format: functional;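 further: cells exposed to compound for about 90 hours before reading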
[30] = growth suppression of beta-catenin-knockout colon cells, dose response, cell-based, HCT116, human colon tumor (AID 1045); format: functional;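 further: HCT116 colon tumor cells with beta catenin knocked out; cells exposed to compound for 60 hours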
[31] = A549 cell cytotoxicity, dose response, cytotoxicity control, plate reader, cherry-pick, antagonist series (AID 743412); format: functional, cell-based
[32] = MC4R antagonists, dose response, counter-screen for LGR2 antagonist project, cell-based, plate reader, cherry pick (AID 743444); format: functional;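 further: transfected HEK 293 cells stimulated with alpha-MSH peptide; potency of inhibitors of the alpha-MSH evoked signal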
cells [33] = format: functional

CNC(=S)N(Cc1ccc(OC)cc1)C1CC(=O)N(c2ccc(Cl)cc2)C1=O (configuration not stated)
IC50 (Fatty acid synthase [1]): 11 µM (active)
IC50 (Fatty acid synthase [2]): 9.36 µM (active)

COc1ccc(Cl)cc1NC(=O)Nc1cnccn1
EC50 [3]: > 112 µM (not active)
EC50 [4]: > 112 µM (not active)
AC50 [5]: 3.57 µM (active)
AC50 [6]: 37.9 µM (active)
AC50 [7]: 2.19 µM (active)
AC50 [8]: 14.2 µM (active)

N#CCCSc1nc(N2CCOCC2)c2c(c1C#N)CCCC2
IC50 (Fatty acid synthase [1]): 7.57 µM (active)
IC50 (Fatty acid synthase [2]): 5.49 µM (active)

CCCCc1ccc(NC(=O)CSC2=NN3CCCC(=O)N=C3S2)cc1
EC50 [9]: > 300 µM (not active)
EC50 [10]: > 300 µM (not active)
CC50 [11]: > 40 µM (active)

CCCCCOc1ccc(N2C(=O)C3C4C=CC(C3C2=O)N(C)C4=O)cc1 (configuration not stated)
CC50 [11]: > 40 µM (active)

COc1ccc(-c2ccc3c(c2)[C@@H]2[C@@H](CCN2Cc2ccncc2)[C@@H](CO)N3)cc1
AC50 [12]: 8.88 µM (active)

O=C(NCc1ccccc1)/C(=C\c1cccc([N+](=O)[O-])c1)NC(=O)c1ccco1
IC50 (Fatty acid synthase [1]): 5.46 µM (active)
IC50 (Fatty acid synthase [2]): 4.06 µM (active)

CC(C1CC2CCC1C2)n1c(S)nnc1-c1cccs1 (configuration not stated)
EC50 [13]: 2.66 µM (active)

Cc1ccc(Cn2nnnc2CN2CCC(c3nc4cc(Cl)ccc4[nH]3)CC2)cc1
EC50 [14]: 7.23 µM (active)
EC50 [15]: 10.5 µM (active)
EC50 [16]: 2.45 µM (active)
CC50 [11]: 6.84 µM (active)
AC50 [5]: 19.5 µM (active)
AC50 [6]: 2.37 µM (active)

Oc1ccc2ccccc2c1N=Nc1nccs1
EC50 (BJ [17]): 1.32 µM (active)
EC50 (cells [18]): 40.4 µM (active)
EC50 (BJ [19]): 2.03 µM (active)
CC50 [11]: 17.8 µM (active)
EC50 (cells [20]): 40.5 µM (active)
EC50 (BJ [21]): 2.91 µM (active)
EC50 [22]: 10.3 µM (active)
AC50 [23]: 0.932 µM (active)
AC50 (INS1): 0.666 µM (active)
IC50 [24]: > 66 µM (inactive)
IC50 [25]: > 66 µM (inactive)
AC50 (Paired box protein Pax-8): 2.92 µM (active)

Cc1ccc(-n2nc(-c3cccs3)cc2C(=O)NCC2CCCO2)c(C)c1 (configuration not stated)
EC50 [13]: 4.73 µM (active)

COc1ccc2nc(Nc3sc4c(c3C(N)=O)CCCC4)sc2c1
IC50 [26]: 8.79 µM (active)

COc1ccc2c3c(n(C)c2c1)[C@H](CO)N(C(=O)Nc1ccc(F)cc1)CC31CCN(Cc2ccccn2)CC1
AC50 [12]: 3.43 µM (active)

CC(C)CCNC(=O)C(c1ccc(O)cc1)N(Cc1cccs1)C(=O)C1COc2ccccc2O1 (configuration not stated)
EC50 [27]: 1.58 µM (active)
EC50 [28]: 19.5 µM (active)
EC50 [29]: > 60 µM (inconclusive)
EC50 [30]: 21.4 µM (active)
AC50 [31]: > 52 µM (inactive)
AC50 [32]: 35.3 µM (active)

N#C[C@@H]1[C@@H](c2ccccc2C2=CCCC2)[C@H](CO)N1C(=O)C1CC1
AC50 [12]: > 36 µM (inactive)

O=C(O)CC(NC(=O)CCC1CCCCC1)c1cc([N+](=O)[O-])ccc1Cl (configuration not stated)
IC50 (Fatty acid synthase [1]): 10.7 µM (active)
IC50 (Fatty acid synthase [2]): 8.7 µM (active)

CO[C@@H]1CN(C)C(=O)c2cc(NC(=O)Nc3ccc(C(F)(F)F)cc3)ccc2OC[C@H](C)NC[C@@H]1C
AC50 [12]: 5.85 µM (active)

CCOCCCNCc1cc(Br)ccc1OCc1ccccc1
EC50 [13]: 1.33 µM (active)

Cc1cc(C)cc(-n2c(C)c3c(C)nnc(C)c3c2C)c1
CC50 [11]: > 40 µM (active)

Cc1cc(OCc2cc(C(=O)N(C)CCc3cnn(C)c3)no2)cc(C)c1Cl
CC50 [11]: > 40 µM (active)
IC50 (cells [33]): 29.6 µM (active)

CCN(CC)S(=O)(=O)c1ccc(N2CCCC2)c(NC(=O)Cc2cc(OC)c(OC)c(OC)c2)c1
AC50 [5]: 3.42 µM (active)
AC50 [6]: 5.2 µM (active)
AC50 [7]: 6.7 µM (active)
AC50 [8]: 7.04 µM (active)
